This is an account of results in the NIST ThermoML archive (doi:10.1016/j.fluid.2016.10.027).

± gives the expanded uncertainty stated by the source.

For orientation: mass density means mass per unit of volume. One may read the refractive index as a measure of how strongly the sample bends light.

For data set [1] the following is noted: 101.33 kPa, Liquid, Vibrating tube method.
Data set [2] is described as follows: refractive index (Na D-line) (dimensionless). Conditions: 101.33 kPa, Liquid, Standard Abbe refractometry.

With `CCC(C)OC(C)=O` (configuration not stated) [1-methylpropyl ethanoate], the mass density in data set [1] (293.15 K) was 871 ± 2 kg/m3. In addition, the refractive index in data set [2] (293.15 K) worked out at 1.3876 ± 0.0006.

With `O` [water], the refractive index in data set [2] (298.15 K) was 1.332 ± 0.0005. Consider `CCC(C)O` (configuration not stated) [butan-2-ol], for which the mass density in data set [1] (298.15 K) was 804 ± 2 kg/m3. For the same molecule, the refractive index in data set [2] (298.15 K) turned out to be 1.3962 ± 0.0005. The like results for `CC(=O)O` [acetic acid] were, in that order, 1044.6 ± 2 kg/m3 and 1.3703 ± 0.0005.
